Measurements as given in the kinase profiling compilation of Christmann-Franck et al. (2016).

What was measured:
Assay in all cases: radiometric filter-binding kinase assay, Kinase HotSpot
Settings in all cases: compound 0.5 µM; ATP 10 µM
ALK (human) = ALK (human) (UniProt Q9UM73)
MAPK11 (human) = MAPK11 (human) (UniProt Q15759)
PDGFRA (human) = PDGFRA (human) (UniProt P16234)
BTK (human) = BTK (human) (UniProt Q06187)
MAP3K8 (human) = MAP3K8 (human) (UniProt P41279)
CSNK1G2 (human) = CSNK1G2 (human) (UniProt P78368)
MAPK8 (human) = MAPK8 (human) (UniProt P45983)
KDR (human) = KDR (human) (UniProt P35968)
RAF1 (human) = RAF1 (human) (UniProt P04049)
STK10 (human) = STK10 (human) (UniProt O94804)
CHEK2 (human) = CHEK2 (human) (UniProt O96017)
FGR (human) = FGR (human) (UniProt P09769)
AKT1 (human) = AKT1 (human) (UniProt P31749)
PAK1 (human) = PAK1 (human) (UniProt Q13153)
EPHA8 (human) = EPHA8 (human) (UniProt P29322)
ACVR1B (human) = ACVR1B (human) (UniProt P36896)
MUSK (human) = MUSK (human) (UniProt O15146)
MAP4K2 (human) = MAP4K2 (human) (UniProt Q12851)
IKBKE (human) = IKBKE (human) (UniProt Q14164)
ACVRL1 (human) = ACVRL1 (human) (UniProt P37023)
DYRK1A (human) = DYRK1A (human) (UniProt Q13627)
PRKD2 (human) = PRKD2 (human) (UniProt Q9BZL6)
WNK2 (human) = WNK2 (human) (UniProt Q9Y3S1)
MAPK3 (human) = MAPK3 (human) (UniProt P27361)
PLK3 (human) = PLK3 (human) (UniProt Q9H4B4)
TAOK2 (human) = TAOK2 (human) (UniProt Q9UL54)
PRKCZ (human) = PRKCZ (human) (UniProt Q05513)
MAP4K4 (human) = MAP4K4 (human) (UniProt O95819)
SGK2 (human) = SGK2 (human) (UniProt Q9HBY8)
PNCK (human) = PNCK (human) (UniProt Q6P2M8)
SRC (human) = SRC (human) (UniProt P12931)
CDC42BPA (human) = CDC42BPA (human) (UniProt Q5VT25)
CAMK2G (human) = CAMK2G (human) (UniProt Q13555)
MAP3K7 TAB1 (human) = MAP3K7 TAB1 (human) (UniProt O43318+Q15750)
MET (human) = MET (human) (UniProt P08581)
ULK1 (human) = ULK1 (human) (UniProt O75385)
ROS1 (human) = ROS1 (human) (UniProt P08922)
DCLK2 (human) = DCLK2 (human) (UniProt Q8N568)
DYRK2 (human) = DYRK2 (human) (UniProt Q92630)
EPHA4 (human) = EPHA4 (human) (UniProt P54764)
SGK3 (human) = SGK3 (human) (UniProt Q96BR1)
CDK1 CCNB1 (human) = CDK1 CCNB1 (human) (UniProt P06493+P14635)

Chain of WNK2 (human) (Q9Y3S1 whole entry, looked up): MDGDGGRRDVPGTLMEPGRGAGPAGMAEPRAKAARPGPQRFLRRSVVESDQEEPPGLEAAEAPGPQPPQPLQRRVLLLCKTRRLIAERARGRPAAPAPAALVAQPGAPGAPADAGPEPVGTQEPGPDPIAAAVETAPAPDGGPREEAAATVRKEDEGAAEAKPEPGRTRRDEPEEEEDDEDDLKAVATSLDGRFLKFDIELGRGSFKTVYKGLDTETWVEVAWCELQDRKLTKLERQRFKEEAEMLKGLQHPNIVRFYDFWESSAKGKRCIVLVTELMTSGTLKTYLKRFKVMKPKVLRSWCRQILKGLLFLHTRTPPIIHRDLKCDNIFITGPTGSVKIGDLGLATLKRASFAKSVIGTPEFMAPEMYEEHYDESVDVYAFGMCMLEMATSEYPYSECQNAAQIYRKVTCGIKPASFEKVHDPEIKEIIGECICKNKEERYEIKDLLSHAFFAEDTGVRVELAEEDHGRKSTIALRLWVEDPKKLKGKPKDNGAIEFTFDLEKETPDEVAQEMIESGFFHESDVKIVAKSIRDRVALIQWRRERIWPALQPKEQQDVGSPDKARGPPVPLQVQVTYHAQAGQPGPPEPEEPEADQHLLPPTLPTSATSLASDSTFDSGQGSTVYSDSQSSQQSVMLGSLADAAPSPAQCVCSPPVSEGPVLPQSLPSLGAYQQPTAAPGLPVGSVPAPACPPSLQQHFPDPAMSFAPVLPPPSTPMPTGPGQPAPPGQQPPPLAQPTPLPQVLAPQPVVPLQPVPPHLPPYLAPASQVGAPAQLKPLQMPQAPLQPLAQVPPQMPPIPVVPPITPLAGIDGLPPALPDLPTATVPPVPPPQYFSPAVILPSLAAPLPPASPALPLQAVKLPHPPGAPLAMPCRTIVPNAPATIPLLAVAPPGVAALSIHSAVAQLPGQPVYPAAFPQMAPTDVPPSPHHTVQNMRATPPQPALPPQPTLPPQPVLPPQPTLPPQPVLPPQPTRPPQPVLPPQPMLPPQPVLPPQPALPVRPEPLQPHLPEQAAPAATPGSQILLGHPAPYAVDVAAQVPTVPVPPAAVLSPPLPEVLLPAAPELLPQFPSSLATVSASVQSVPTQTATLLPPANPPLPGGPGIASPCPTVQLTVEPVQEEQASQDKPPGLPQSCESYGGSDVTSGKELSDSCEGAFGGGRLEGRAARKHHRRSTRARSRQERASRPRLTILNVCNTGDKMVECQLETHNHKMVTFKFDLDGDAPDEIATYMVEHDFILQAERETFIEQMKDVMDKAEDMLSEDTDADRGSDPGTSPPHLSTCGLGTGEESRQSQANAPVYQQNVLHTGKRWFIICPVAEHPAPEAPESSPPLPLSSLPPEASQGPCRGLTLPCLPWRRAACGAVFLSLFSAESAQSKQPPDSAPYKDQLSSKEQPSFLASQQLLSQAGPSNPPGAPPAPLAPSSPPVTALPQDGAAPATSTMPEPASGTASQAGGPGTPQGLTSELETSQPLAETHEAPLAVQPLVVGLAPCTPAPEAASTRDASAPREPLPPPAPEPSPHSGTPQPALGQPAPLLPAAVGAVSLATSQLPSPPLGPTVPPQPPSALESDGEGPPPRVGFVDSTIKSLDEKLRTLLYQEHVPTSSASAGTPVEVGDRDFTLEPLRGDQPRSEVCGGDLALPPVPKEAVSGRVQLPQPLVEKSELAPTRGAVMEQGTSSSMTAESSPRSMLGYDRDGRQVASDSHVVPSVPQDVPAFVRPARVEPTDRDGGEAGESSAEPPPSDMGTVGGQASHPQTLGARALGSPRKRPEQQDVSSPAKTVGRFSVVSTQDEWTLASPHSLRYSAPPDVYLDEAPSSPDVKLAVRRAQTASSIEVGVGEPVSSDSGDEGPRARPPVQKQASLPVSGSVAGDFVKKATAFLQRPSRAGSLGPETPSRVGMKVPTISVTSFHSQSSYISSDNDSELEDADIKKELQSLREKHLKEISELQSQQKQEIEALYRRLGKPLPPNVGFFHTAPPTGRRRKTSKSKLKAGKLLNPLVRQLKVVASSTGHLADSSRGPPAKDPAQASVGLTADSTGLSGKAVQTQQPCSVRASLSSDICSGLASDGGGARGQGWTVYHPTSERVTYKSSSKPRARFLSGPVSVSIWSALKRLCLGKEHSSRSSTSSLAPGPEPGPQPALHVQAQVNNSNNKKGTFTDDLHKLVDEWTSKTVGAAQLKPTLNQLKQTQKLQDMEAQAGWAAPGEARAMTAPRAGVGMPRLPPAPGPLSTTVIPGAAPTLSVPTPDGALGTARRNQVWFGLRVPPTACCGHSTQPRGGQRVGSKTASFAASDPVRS
Chain of EPHA8 (human) (P29322 whole entry, looked up): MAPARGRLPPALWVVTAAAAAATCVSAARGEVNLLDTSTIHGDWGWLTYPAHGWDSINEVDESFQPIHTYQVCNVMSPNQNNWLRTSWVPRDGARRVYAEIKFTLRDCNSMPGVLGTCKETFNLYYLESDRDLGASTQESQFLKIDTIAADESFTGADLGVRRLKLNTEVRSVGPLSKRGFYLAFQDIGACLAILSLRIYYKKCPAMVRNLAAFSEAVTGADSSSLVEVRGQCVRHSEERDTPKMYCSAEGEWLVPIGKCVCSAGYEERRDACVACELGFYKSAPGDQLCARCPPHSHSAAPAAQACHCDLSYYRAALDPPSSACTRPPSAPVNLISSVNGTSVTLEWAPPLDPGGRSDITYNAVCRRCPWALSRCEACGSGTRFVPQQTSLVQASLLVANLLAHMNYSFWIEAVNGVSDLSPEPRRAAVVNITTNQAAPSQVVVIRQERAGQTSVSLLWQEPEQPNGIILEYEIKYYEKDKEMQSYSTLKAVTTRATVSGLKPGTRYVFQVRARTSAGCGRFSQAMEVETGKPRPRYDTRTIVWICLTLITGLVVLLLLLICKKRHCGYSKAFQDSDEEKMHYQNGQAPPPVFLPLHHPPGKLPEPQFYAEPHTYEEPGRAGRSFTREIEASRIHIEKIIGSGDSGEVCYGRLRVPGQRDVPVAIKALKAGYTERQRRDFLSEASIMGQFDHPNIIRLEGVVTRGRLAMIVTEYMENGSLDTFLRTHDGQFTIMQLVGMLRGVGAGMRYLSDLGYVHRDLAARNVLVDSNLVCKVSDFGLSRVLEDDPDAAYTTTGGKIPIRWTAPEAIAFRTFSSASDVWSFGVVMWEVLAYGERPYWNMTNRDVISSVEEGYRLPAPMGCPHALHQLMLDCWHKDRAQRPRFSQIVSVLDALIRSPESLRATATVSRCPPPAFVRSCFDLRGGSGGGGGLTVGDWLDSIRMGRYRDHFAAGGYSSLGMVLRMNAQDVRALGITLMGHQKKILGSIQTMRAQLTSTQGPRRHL
Chain of MAPK11 (human) (Q15759 whole entry, looked up): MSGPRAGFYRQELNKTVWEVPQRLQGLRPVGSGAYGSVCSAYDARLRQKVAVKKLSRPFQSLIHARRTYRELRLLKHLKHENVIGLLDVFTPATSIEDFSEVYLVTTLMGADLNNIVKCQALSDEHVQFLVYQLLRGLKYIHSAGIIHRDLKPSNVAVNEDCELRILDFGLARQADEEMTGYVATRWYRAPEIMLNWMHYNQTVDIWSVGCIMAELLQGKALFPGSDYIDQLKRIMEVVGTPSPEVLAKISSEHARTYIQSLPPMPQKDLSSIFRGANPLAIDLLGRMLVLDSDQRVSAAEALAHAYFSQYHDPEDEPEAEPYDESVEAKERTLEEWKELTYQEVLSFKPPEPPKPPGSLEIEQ
Chain of CHEK2 (human) (O96017 whole entry, looked up): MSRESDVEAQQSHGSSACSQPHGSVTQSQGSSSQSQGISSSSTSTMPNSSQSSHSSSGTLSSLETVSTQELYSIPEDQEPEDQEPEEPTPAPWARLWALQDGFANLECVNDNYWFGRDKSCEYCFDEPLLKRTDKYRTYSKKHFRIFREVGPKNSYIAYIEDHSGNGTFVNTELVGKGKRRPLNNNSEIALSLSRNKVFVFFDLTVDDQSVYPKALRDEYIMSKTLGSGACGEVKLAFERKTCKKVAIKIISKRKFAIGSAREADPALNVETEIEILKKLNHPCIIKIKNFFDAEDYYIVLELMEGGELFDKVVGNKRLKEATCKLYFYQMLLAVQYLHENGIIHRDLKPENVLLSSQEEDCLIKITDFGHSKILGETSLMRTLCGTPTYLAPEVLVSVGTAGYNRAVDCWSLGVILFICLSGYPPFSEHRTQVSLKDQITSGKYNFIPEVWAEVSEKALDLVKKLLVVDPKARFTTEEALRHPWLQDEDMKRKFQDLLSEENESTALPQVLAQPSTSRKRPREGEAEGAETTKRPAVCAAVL
Chain of MUSK (human) (O15146 whole entry, looked up): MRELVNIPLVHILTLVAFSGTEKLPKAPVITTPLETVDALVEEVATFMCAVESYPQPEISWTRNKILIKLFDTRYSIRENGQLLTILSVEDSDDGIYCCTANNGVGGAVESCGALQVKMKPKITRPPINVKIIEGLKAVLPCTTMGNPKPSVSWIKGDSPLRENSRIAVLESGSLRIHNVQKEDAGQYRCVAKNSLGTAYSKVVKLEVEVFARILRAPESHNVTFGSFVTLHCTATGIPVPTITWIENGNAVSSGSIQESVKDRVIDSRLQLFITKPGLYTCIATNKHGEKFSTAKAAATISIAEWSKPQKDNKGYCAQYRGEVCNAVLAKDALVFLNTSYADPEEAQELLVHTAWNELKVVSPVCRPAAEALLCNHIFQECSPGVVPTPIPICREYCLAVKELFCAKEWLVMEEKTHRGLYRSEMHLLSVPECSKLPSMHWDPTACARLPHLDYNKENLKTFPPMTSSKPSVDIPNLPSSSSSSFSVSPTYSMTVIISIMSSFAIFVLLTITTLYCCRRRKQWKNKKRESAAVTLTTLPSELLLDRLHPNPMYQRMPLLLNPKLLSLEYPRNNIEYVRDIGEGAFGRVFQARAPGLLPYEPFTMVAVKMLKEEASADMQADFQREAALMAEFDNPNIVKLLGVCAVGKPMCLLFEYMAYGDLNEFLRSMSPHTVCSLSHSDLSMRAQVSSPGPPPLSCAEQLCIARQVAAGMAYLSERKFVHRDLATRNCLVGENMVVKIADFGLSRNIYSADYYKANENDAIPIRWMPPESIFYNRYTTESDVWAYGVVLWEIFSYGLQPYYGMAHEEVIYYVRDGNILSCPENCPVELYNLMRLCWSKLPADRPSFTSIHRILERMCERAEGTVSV

For `O=c1c(-c2ccc(F)cc2)c(-c2ccncc2)[nH]n1-c1ccc(Cl)cc1`, the residual activity (ALK (human)) was 83.8%, the residual activity (MAPK11 (human)) was 55.9% and the residual activity (PDGFRA (human)) was 103%. The residual activity (BTK (human)) was 83.6%, the residual activity (MAP3K8 (human)) was 87.1% and the residual activity (CSNK1G2 (human)) was 93.8%. It also gave a residual activity (MAPK8 (human)) of 90.2%, a residual activity (KDR (human)) of 90.6% and a residual activity (RAF1 (human)) of 61.4%. For the same compound, the residual activity (STK10 (human)) was 81.9%, the residual activity (CHEK2 (human)) was 91.4% and the residual activity (FGR (human)) was 87.4%. For the same compound, the residual activity (AKT1 (human)) was 96.4%, the residual activity (PAK1 (human)) was 92.4% and the residual activity (EPHA8 (human)) was 94.4%. For the same compound, the residual activity (ACVR1B (human)) was 123%, the residual activity (MUSK (human)) was 102% and the residual activity (MAP4K2 (human)) was 87.7%. It also gave a residual activity (IKBKE (human)) of 98.3%, a residual activity (ACVRL1 (human)) of 88.1% and a residual activity (DYRK1A (human)) of 89.8%. It also gave a residual activity (PRKD2 (human)) of 73.4%, a residual activity (WNK2 (human)) of 112% and a residual activity (MAPK3 (human)) of 103%. For the same compound, the residual activity (PLK3 (human)) was 96.3%, the residual activity (TAOK2 (human)) was 101% and the residual activity (PRKCZ (human)) was 99%. The residual activity (MAP4K4 (human)) was 93.5%, the residual activity (SGK2 (human)) was 94.3% and the residual activity (PNCK (human)) was 92%. For the same compound, the residual activity (SRC (human)) was 91.6%, the residual activity (CDC42BPA (human)) was 98% and the residual activity (CAMK2G (human)) was 109%. For the same compound, the residual activity (MAP3K7 TAB1 (human)) was 100%, the residual activity (MET (human)) was 101% and the residual activity (ULK1 (human)) was 103%. For the same compound, the residual activity (ROS1 (human)) was 97.6%, the residual activity (DCLK2 (human)) was 99.9% and the residual activity (DYRK2 (human)) was 86.9%. For the same compound, the residual activity (EPHA4 (human)) was 93.5% and the residual activity (SGK3 (human)) was 100%.

`COc1cc2c(cc1OC)-c1[nH]nc(Nc3cccc(F)c3)c1C2` was tested, and the residual activity (ALK (human)) was 103%, the residual activity (MAPK11 (human)) was 83% and the residual activity (PDGFRA (human)) was 33.4%. It also gave a residual activity (BTK (human)) of 40.8%, a residual activity (MAP3K8 (human)) of 99.9% and a residual activity (CSNK1G2 (human)) of 89.7%. It also gave a residual activity (MAPK8 (human)) of 85.2%, a residual activity (KDR (human)) of 98.7% and a residual activity (STK10 (human)) of 89%. For the same compound, the residual activity (CHEK2 (human)) was 96.5%, the residual activity (FGR (human)) was 47.2% and the residual activity (AKT1 (human)) was 93.3%. For the same compound, the residual activity (PAK1 (human)) was 96.9%, the residual activity (EPHA8 (human)) was 94.2% and the residual activity (ACVR1B (human)) was 92.9%. The residual activity (MUSK (human)) was 82.7%, the residual activity (CDK1 CCNB1 (human)) was 101% and the residual activity (MAP4K2 (human)) was 103%. The residual activity (IKBKE (human)) was 93.3%, the residual activity (ACVRL1 (human)) was 102% and the residual activity (DYRK1A (human)) was 90.3%. The residual activity (PRKD2 (human)) was 96.3%, the residual activity (WNK2 (human)) was 104% and the residual activity (MAPK3 (human)) was 93.7%. The residual activity (PLK3 (human)) was 94.9%, the residual activity (TAOK2 (human)) was 97.1% and the residual activity (PRKCZ (human)) was 99.7%. The residual activity (MAP4K4 (human)) was 55.5%, the residual activity (SGK2 (human)) was 98.6% and the residual activity (PNCK (human)) was 98%. The residual activity (SRC (human)) was 63.4%, the residual activity (CDC42BPA (human)) was 119% and the residual activity (CAMK2G (human)) was 101%. For the same compound, the residual activity (MAP3K7 TAB1 (human)) was 94%, the residual activity (MET (human)) was 97.8% and the residual activity (ULK1 (human)) was 103%. It also gave a residual activity (ROS1 (human)) of 97.5%, a residual activity (DCLK2 (human)) of 88.2% and a residual activity (DYRK2 (human)) of 95.3%. For the same compound, the residual activity (EPHA4 (human)) was 93.3% and the residual activity (SGK3 (human)) was 92.7%.

`O=S(=O)(NCCNC/C=C/c1ccc(Br)cc1)c1cccc2cnccc12` gave a residual activity (ALK (human)) of 101%, a residual activity (MAPK11 (human)) of 87.2% and a residual activity (PDGFRA (human)) of 98.8%. The residual activity (BTK (human)) was 97.4%, the residual activity (MAP3K8 (human)) was 99.4% and the residual activity (CSNK1G2 (human)) was 86.8%. It also gave a residual activity (MAPK8 (human)) of 92.7%, a residual activity (KDR (human)) of 79.1% and a residual activity (RAF1 (human)) of 96.4%. The residual activity (STK10 (human)) was 89.2%, the residual activity (CHEK2 (human)) was 82.8% and the residual activity (FGR (human)) was 106%. The residual activity (AKT1 (human)) was 41.6%, the residual activity (PAK1 (human)) was 90.2% and the residual activity (EPHA8 (human)) was 118%. For the same compound, the residual activity (MUSK (human)) was 80.7%, the residual activity (CDK1 CCNB1 (human)) was 93.3% and the residual activity (MAP4K2 (human)) was 51.1%. The residual activity (IKBKE (human)) was 92.3%, the residual activity (ACVRL1 (human)) was 119% and the residual activity (DYRK1A (human)) was 98.5%. It also gave a residual activity (PRKD2 (human)) of 75.9%, a residual activity (WNK2 (human)) of 99.4% and a residual activity (MAPK3 (human)) of 84.8%. The residual activity (PLK3 (human)) was 98.2%, the residual activity (TAOK2 (human)) was 90.7% and the residual activity (PRKCZ (human)) was 79.8%. It also gave a residual activity (MAP4K4 (human)) of 43.8%, a residual activity (SGK2 (human)) of 84.2% and a residual activity (PNCK (human)) of 100%. The residual activity (SRC (human)) was 90.1%, the residual activity (CDC42BPA (human)) was 97.5% and the residual activity (CAMK2G (human)) was 98.7%. The residual activity (MAP3K7 TAB1 (human)) was 109%, the residual activity (ULK1 (human)) was 102% and the residual activity (ROS1 (human)) was 99.6%. The residual activity (DCLK2 (human)) was 90.1%, the residual activity (DYRK2 (human)) was 95.2% and the residual activity (EPHA4 (human)) was 86.8%. The residual activity (SGK3 (human)) was 78.8%.
